{"source": "patent US11905280B1", "about": "“2-(benzo[d]oxazol-2-yl)-N'-(picolinoyloxy)acetimidamide as an antimicrobial compound” (KING FAISAL UNIVERSITY, priority 2023, dated 2024)", "key": {"[1]": {"system": "Chrysosporium keratinophilum", "assay": "Agar plate disc-diffusion antifungal test", "type": "cell-based", "conditions": "Sabouraud's dextrose agar, 72 hours", "experimental": "(§1) The agar plate disc-diffusion method was applied. Sterilized filter papers (6 mm in diameter) were wetted with 10 μL of a solution of 2-(benzo[d]oxazol-2-yl)-N′-(picolinoyloxy)acetimidamide (3) to be tested, containing 10 mg/mL in DMSO, and the discs were allowed to air dry. The discs were then placed onto the surface of agar plates (nutrient agar for bacteria and Sabouraud's dextrose agar for fungi) seeded with the test organism. Each plate contained 15 mL of the agar medium, previously seeded with 0.2 mL of the broth culture of each organism pregrown for 18 hours. The plates were incubated at 37° C. for 48 hours, and 72 hours for fungi. The inhibition zones was measured in mm. Discs impregnated with DMSO were used as a control, and its inhibition zone was subtracted from the tested compound actual inhibition zone."}, "Aspergillus flavus": {"system": "Aspergillus flavus", "assay": "Agar plate disc-diffusion antifungal test", "type": "cell-based", "conditions": "Sabouraud's dextrose agar, 72 hours", "experimental": "as §1"}, "Bacillus cereus": {"system": "Bacillus cereus", "assay": "Agar plate disc-diffusion antibacterial test", "type": "cell-based", "conditions": "nutrient agar, 37° C., 48 hours", "experimental": "as §1"}, "Staphylococcus aureus": {"system": "Staphylococcus aureus", "assay": "Agar plate disc-diffusion antibacterial test", "type": "cell-based", "conditions": "nutrient agar, 37° C., 48 hours", "experimental": "as §1"}, "Pseudomonas aeruginosa": {"system": "Pseudomonas aeruginosa", "assay": "Agar plate disc-diffusion antibacterial test", "type": "cell-based", "conditions": "nutrient agar, 37° C., 48 hours", "experimental": "as §1"}, "Escherichia coli": {"system": "Escherichia coli", "assay": "Agar plate disc-diffusion antibacterial test", "type": "cell-based", "conditions": "nutrient agar, 37° C., 48 hours", "experimental": "as §1"}, "[2]": {"conditions": "A = concentration of comp. = 10,000 μL"}, "[3]": {"conditions": "B = concentration of comp. = 30,000 μL"}, "[4]": {"conditions": "C = concentration of comp. = 50,000 μL"}}, "data": [{"smiles": "N/C(Cc1nc2ccccc2o1)=N\\OC(=O)c1ccccn1", "note": "[Compound 3, 2-(benzo[d]oxazol-2-yl)-N′-(picolinoyloxy)acetimidamide]", "values": [{"measurement": "melting point", "result": "156 to 158", "unit": "°C"}, {"measurement": "inhibition zone, Chrysosporium keratinophilum, A", "setting": "[1]; [2]", "result": 23, "unit": "mm"}, {"measurement": "inhibition zone, Chrysosporium keratinophilum, B", "setting": "[1]; [3]", "result": 29, "unit": "mm"}, {"measurement": "inhibition zone, Chrysosporium keratinophilum, C", "setting": "[1]; [4]", "result": 48, "unit": "mm"}, {"measurement": "inhibition zone, Aspergillus flavus, A", "setting": "Aspergillus flavus; [2]", "result": 24, "unit": "mm"}, {"measurement": "inhibition zone, Aspergillus flavus, B", "setting": "Aspergillus flavus; [3]", "result": 27, "unit": "mm"}, {"measurement": "inhibition zone, Aspergillus flavus, C", "setting": "Aspergillus flavus; [4]", "result": 38, "unit": "mm"}, {"measurement": "inhibition zone, Bacillus Cereus, A", "setting": "Bacillus cereus; [2]", "result": 25, "unit": "mm"}, {"measurement": "inhibition zone, Bacillus Cereus, B", "setting": "Bacillus cereus; [3]", "result": 27, "unit": "mm"}, {"measurement": "inhibition zone, Bacillus Cereus, C", "setting": "Bacillus cereus; [4]", "result": 39, "unit": "mm"}, {"measurement": "inhibition zone, Staphylococcus aureus, A", "setting": "Staphylococcus aureus; [2]", "result": 15, "unit": "mm"}, {"measurement": "inhibition zone, Staphylococcus aureus, B", "setting": "Staphylococcus aureus; [3]", "result": 20, "unit": "mm"}, {"measurement": "inhibition zone, Staphylococcus aureus, C", "setting": "Staphylococcus aureus; [4]", "result": 28, "unit": "mm"}, {"measurement": "inhibition zone, Pseudomonas aeruginosa, A", "setting": "Pseudomonas aeruginosa; [2]", "result": 25, "unit": "mm"}, {"measurement": "inhibition zone, Pseudomonas aeruginosa, B", "setting": "Pseudomonas aeruginosa; [3]", "result": 31, "unit": "mm"}, {"measurement": "inhibition zone, Pseudomonas aeruginosa, C", "setting": "Pseudomonas aeruginosa; [4]", "result": 45, "unit": "mm"}, {"measurement": "inhibition zone, Escherichia coli, A", "setting": "Escherichia coli; [2]", "result": 29, "unit": "mm"}, {"measurement": "inhibition zone, Escherichia coli, B", "setting": "Escherichia coli; [3]", "result": 37, "unit": "mm"}, {"measurement": "inhibition zone, Escherichia coli, C", "setting": "Escherichia coli; [4]", "result": 53, "unit": "mm"}]}]}
